In PubChem BioAssay (NCI):
Where “and” joins values, the source holds several entries; their conditions need not be identical. Equal entries are not always repeated.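 Dose response: 5 concentrations. Exposure: 48 h. Format: 96-well plates. Endpoint: linear interpolation; highest concentration if not reached. At the GI50, growth is halved. Definition used: TGI = concentration required for complete inhibition of growth.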

Key:
Test in all cases: NCI anticancer screen, dose series, 48 h
A549 NSCLC = test system: A549 NSCLC
CCRF-CEM leukemia = test system: CCRF-CEM leukemia
IGROV1 ovarian = test system: IGROV1 ovarian
LOX IMVI melanoma = test system: LOX IMVI melanoma
NCI-H23 lung = test system: NCI-H23 lung
SF-539 CNS = test system: SF-539 CNS
SW-620 colon = test system: SW-620 colon
UACC-257 melanoma = test system: UACC-257 melanoma
DU-145 prostate = test system: DU-145 prostate
MDA-MB-231 breast = test system: MDA-MB-231 breast

| SMILES | TGI (A549 NSCLC) [µM] | TGI (CCRF-CEM leukemia) [µM] | TGI (IGROV1 ovarian) [µM] | TGI (LOX IMVI melanoma) | TGI (NCI-H23 lung) | TGI (SF-539 CNS) | TGI (SW-620 colon) | TGI (UACC-257 melanoma) | GI50 (A549 NSCLC) [µM] | GI50 (DU-145 prostate) [µM] | TGI (DU-145 prostate) [µM] | GI50 (IGROV1 ovarian) [µM] | GI50 (LOX IMVI melanoma) [µM] | GI50 (MDA-MB-231 breast) [µM] | TGI (MDA-MB-231 breast) [µM] | GI50 (NCI-H23 lung) [µM] | GI50 (SF-539 CNS) [µM] | GI50 (SW-620 colon) [µM] | GI50 (UACC-257 melanoma) [µM] |
| --- | --- | --- | --- | --- | --- | --- | --- | --- | --- | --- | --- | --- | --- | --- | --- | --- | --- | --- | --- |
| COCC1N=C(c2cc(OC)c(OC)c(OC)c2-c2cc3c(cc2C2OCCCO2)OCO3)O[C@H]1c1ccccc1 (some centres undefined) | > 100 | > 100 | > 100 | > 100 µM | > 100 µM | > 100 µM | > 100 µM | > 100 µM | – | – | – | – | – | – | – | – | – | – | – |
| Nc1ccn(CCO)c(=O)n1 | > 100 | > 100 | > 100 | > 100 µM | – | > 100 µM | > 100 µM | > 100 µM | – | – | – | – | – | – | – | – | – | – | – |
| O=C1OC(CC(=O)c2ccc(Cl)cc2Cl)C(Cl)=C1Cl (centres undefined) | > 100 | > 72.7 | > 69.9 | 57.9 µM | > 65.7 µM | 44.9 µM | 38.1 µM | > 100 µM | – | – | – | – | – | – | – | – | – | – | – |
| NC(=O)c1cc([N+](=O)[O-])c(Cl)c([N+](=O)[O-])c1 | 32.2 | – | 7.9 | 3.7 µM | 8.32 µM | 4 µM | 3.99 µM | 15 µM | 16.9 | 2.15 | 3.92 | 3.01 | 1.86 | 1.96 | 3.84 | 2.78 | 2.02 | 1.9 | 3.87 |
| c1cc(CCN2CCCCC2)ccn1 | > 100 | – | > 100 | > 100 µM | > 100 µM | > 100 µM | > 100 µM | > 100 µM | – | – | > 100 | – | – | – | > 100 | – | – | – | – |
| CCCCCCCCCCC(O)[C@H]1CCC(C2CC[C@H]([C@H](O)CCCCCCCCCCC(O)CC3=CC(C)OC3=O)O2)O1 (some centres undefined) | > 100 | 5.37 | – | 3.09 µM and 2.92 µM | 4.03 µM and 7.12 µM | 2.9 µM and 5.61 µM | 6.83 µM and 12 µM | 4.83 µM and 5.13 µM | 2.96 | – | – | – | 1.18 | – | 4.23 | < 0.01 | – | 2.51 | – |
| Fc1cccc2cc3ccc4cccc5ccc(c12)c3c45 | > 100 | > 100 | > 100 | > 100 µM | > 100 µM | > 100 µM | > 100 µM | > 100 µM | – | – | – | – | – | – | – | – | – | – | – |
| N#Cc1cccc(C(=O)Nc2cccc(NC(=O)c3cccc(C#N)c3)c2)c1 | > 100 | – | > 100 | – | > 100 µM | > 100 µM | > 100 µM | > 100 µM | 74.3 | 66.6 | > 100 | > 100 | – | 75.9 | > 100 | 89 | 57.7 | > 100 | > 100 |
| CCCCCCCCC(=O)N(C)C1C2CN3CCC(O2)C13 (centres undefined) | > 100 | > 100 | > 100 | > 100 µM | > 100 µM | > 100 µM | > 100 µM | > 100 µM | – | – | – | – | – | – | – | – | – | – | – |
| Cc1ccc(NC(=O)c2cc3ccccc3c(N=Nc3ccccc3O)c2O)c(C)c1 | 12.7 | 4.75 | 13.5 | – | – | – | 11.8 µM | 20 µM | – | – | – | – | – | – | 8.77 | – | – | – | – |
| O=C1Nc2ccccc2C1Cc1ccc([N+](=O)[O-])cc1 (centres undefined) | > 100 | > 100 | > 100 | > 100 µM | > 100 µM | – | > 100 µM | > 100 µM | – | – | > 100 | – | – | – | > 100 | – | – | – | – |
